What was measured:
human VMAT2 = human VMAT2 (Homo sapiens (Human), UniProt Q05940); experiment: VMAT2 radioligand binding, 3H-dihydrotetrabenazine competition on human platelet homogenate; settings: 10 nM 3H-dihydrotetrabenazine, human platelet homogenate, 25° C., 90 minutes; read-out: VMAT2 Ki
Summary of the method: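 Human platelet homogenate (30 μg membrane protein/well) in DPBS with 1 mM EDTA, pH 7.4; twelve test-compound concentrations competed against 10 nM ³H-dihydrotetrabenazine. Incubated 90 min at 25 °C, bound radioligand collected by filtration on PEI-pretreated glass-fibre filters and counted by scintillation; Ki derived.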

[1] = Stability of compounds in human liver microsomes; format: in vitro ADME; settings: for CLint scaled at 0.5 μM / half-life at 0.5 μM: both sexes, pH 7.4; for CLint scaled at 0.5 μM: liver microsomes, calculated from HLM half-life, read-out: HLM Scaled Intrinsic Clearance; for CLint scaled at 0.5 μM / Predicted Max. Bioavailability (% F) / HLM Predicted Systemic Clearance: human; for half-life at 0.5 μM: 0.5 μM compound, 0.5 mg/mL human liver microsomes, 37° C., maxed at 420 minutes, read-out: HLM Elimination half-life (t1/2, min); for Predicted Max. Bioavailability (% F): predicted from HLM data; for HLM Predicted Systemic Clearance: scaled from HLM half-life (Obach method)
Experimental: A test compound (0.5 μM) was incubated with pooled mixed gender liver microsomes from humans (0.5 mg/mL total protein) at 37° C. in the presence of an NADPH-generating system containing 50 mM, pH 7.4 potassium phosphate buffer, 3 mM magnesium chloride, 1 mM EDTA, 1 mM NADP, 5 mM glusose-6-phosphate, and 1 Unit/mL glucose-6-phosphate dehydrogenase. All concentrations were relative to the final incubation volume of 125 μL. Incubations were conducted at 37° C. for 0, 5, 10, 20, 40, and 60 minutes in a water bath and terminated by rapid mixing with 150 μL of ice-cold acetonitrile containing internal standard. Precipitated proteins were removed by centrifugation prior to LC-MS/MS analysis. Aliquots of the resulting supernatant fractions were analyzed by LC-MS/MS monitoring for depletion of parent compound. The resultant peak area ratio versus time data was fitted to a non-linear regression using XLfit Scientific Curve Fitting Software (IDBS Ltd., Surrey, UK) and the elimination half-life (t1/2, min) was calculated from the slope. […] Additional values calculated included predicted extraction ratio and predicted maximum bioavailability.

Chain of human VMAT2 (Q05940 whole entry): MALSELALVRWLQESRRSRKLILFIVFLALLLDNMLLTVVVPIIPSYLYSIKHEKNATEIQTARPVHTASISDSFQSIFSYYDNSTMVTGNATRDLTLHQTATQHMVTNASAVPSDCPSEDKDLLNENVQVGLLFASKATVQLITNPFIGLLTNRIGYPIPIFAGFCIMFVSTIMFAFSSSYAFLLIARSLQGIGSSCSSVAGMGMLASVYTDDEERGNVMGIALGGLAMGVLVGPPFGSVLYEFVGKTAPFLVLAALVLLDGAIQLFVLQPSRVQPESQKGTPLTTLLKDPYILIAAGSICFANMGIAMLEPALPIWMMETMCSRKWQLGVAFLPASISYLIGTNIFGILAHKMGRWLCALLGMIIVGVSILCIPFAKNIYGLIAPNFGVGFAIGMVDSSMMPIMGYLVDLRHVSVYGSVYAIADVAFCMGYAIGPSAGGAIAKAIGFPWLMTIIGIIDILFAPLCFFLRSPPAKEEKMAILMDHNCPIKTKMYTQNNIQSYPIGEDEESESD

| SMILES | Ki (human VMAT2) [nM] | CLint scaled at 0.5 μM [1] [mL/min/kg] | half-life at 0.5 μM [1] [min] | Predicted Max. Bioavailability (% F) [1] [% F] | HLM Predicted Systemic Clearance [1] [mL/min/kg] |
| --- | --- | --- | --- | --- | --- |
| COc1cc2c(cc1OCCF)CCN1C[C@@H](CC(C)(C)C)[C@H](O)C[C@H]21 [Compound 4-18, (2R,3R,11bR)-3-(2,2-dimethylpropyl)-9-(2-fluoroethoxy)-10-methoxy-1H,2H,3H,4H,6H,7H,11bH-pyrido[2,1-a]isoquinolin-2-ol] | 5.5 | 8.05 | 155 | 71 | 5.74 |
| COc1cc2c(cc1OCC1(F)COC1)CCN1C[C@@H](CC(C)(C)C)[C@H](O)C[C@H]21 [Compound 4-19, (2R,3R,11bR)-3-(2,2-dimethylpropyl)-9-[(3-fluorooxetan-3-yl)methoxy]-10-methoxy-1H,2H,3H,4H,6H,7H,11bH-pyrido[2,1-a]isoquinolin-2-ol] | 8.1 | 14.2 | 88 | 59 | 8.3 |
| COc1cc2c(cc1OCCC1(C#N)CC1)CCN1C[C@@H](CC(C)(C)C)[C@H](O)C[C@H]21 [Compound 4-45, 1-(2-{[(2R,3R,11bR)-3-(2,2-dimethylpropyl)-2-hydroxy-10-methoxy-1H,2H,3H,4H,6H,7H,11bH-pyrido[2,1-a]isoquinolin-9-yl]oxy}ethyl)cyclopropane-1-carbonitrile] | 7.3 | 9.7 | 129 | 67 | 6.53 |
| COc1cc2c(cc1OCC1(O)CCC1)CCN1C[C@@H](CC(C)(C)C)[C@H](O)C[C@H]21 [Compound 4-25, (2R,3R,11bR)-3-(2,2-dimethylpropyl)-9-[(1-hydroxycyclobutyl)methoxy]-10-methoxy-1H,2H,3H,4H,6H,7H,11bH-pyrido[2,1-a]isoquinolin-2-ol] | 5.5 | 11.4 | 109 | 64 | 7.26 |
| COc1cc2c(cc1OCC(C)(O)C(F)(F)F)CCN1C[C@@H](CC(C)(C)C)[C@H](O)C[C@H]21 (stereo partly drawn) [Compound 4-66, (2R,3R,11bR)-3-(2,2-dimethylpropyl)-10-methoxy-9-(3,3,3-trifluoro-2-hydroxy-2-methylpropoxy)-1H,2H,3H,4H,6H,7H,11bH-pyrido[2,1-a]isoquinolin-2-ol] | 10 | ≤ 2.97 | ≥ 420 | ≥87 | ≤2.59 |
| COc1cc2c(cc1OCC(O)CC(F)(F)F)CCN1C[C@@H](CC(C)(C)C)[C@H](O)C[C@H]21 (stereo partly drawn) [Compound 4-62, (2R,3R,11bR)-3-(2,2-dimethylpropyl)-10-methoxy-9-(4,4,4-trifluoro-2-hydroxybutoxy)-1H,2H,3H,4H,6H,7H,11bH-pyrido[2,1-a]isoquinolin-2-ol] | 3.7 | ≤ 2.97 | ≥ 420 | ≥87 | ≤2.59 |
| COc1cc2c(cc1OC[C@H](C)OC)CCN1C[C@@H](CC(C)(C)C)[C@H](O)C[C@H]21 [Compound 4-92, (2R,3R,11bR)-3-(2,2-dimethylpropyl)-10-methoxy-9-[(2S)-2-methoxypropoxy]-1H,2H,3H,4H,6H,7H,11bH-pyrido[2,1-a]isoquinolin-2-ol] | 51 | 25.5 | 49 | 44 | 11.2 |
| COc1cc2c(cc1OCC(F)(F)Cl)CCN1C[C@@H](CC(C)(C)C)[C@H](O)C[C@H]21 [Compound 4-65, (2R,3R,11bR)-9-(2-chloro-2,2-difluoroethoxy)-3-(2,2-dimethylpropyl)-10-methoxy-1H,2H,3H,4H,6H,7H,11bH-pyrido[2,1-a]isoquinolin-2-ol] | 8.7 | 5.5 | 227 | 78 | 4.31 |
| COc1cc2c(cc1OCC(O)C(F)F)CCN1C[C@@H](CC(C)(C)C)[C@H](O)C[C@H]21 (stereo partly drawn) [Compound 4-51, (2R,3R,11bR)-9-(3,3-difluoro-2-hydroxypropoxy)-3-(2,2-dimethylpropyl)-10-methoxy-1H,2H,3H,4H,6H,7H,11bH-pyrido[2,1-a]isoquinolin-2-ol] | 9.4 | ≤ 2.97 | ≥ 420 | ≥87 | ≤2.59 |
| COc1cc2c(cc1OCCN1CCC(F)(F)C1)CCN1C[C@@H](CC(C)(C)C)[C@H](O)C[C@H]21 [Compound 4-71, (2R,3R,11bR)-9-[2-(3,3-difluoropyrrolidin-1-yl)ethoxy]-3-(2,2-dimethylpropyl)-10-methoxy-1H,2H,3H,4H,6H,7H,11bH-pyrido[2,1-a]isoquinolin-2-ol] | 37 | 38.4 | 33 | 34 | 13.15 |
| C=C(C)COc1cc2c(cc1OC)[C@H]1C[C@@H](O)[C@H](CC(C)(C)C)CN1CC2 [Compound 4-56, (2R,3R,11bR)-3-(2,2-dimethylpropyl)-10-methoxy-9-[(2-methylprop-2-en-1-yl)oxy]-1H,2H,3H,4H,6H,7H,11bH-pyrido[2,1-a]isoquinolin-2-ol] | 0.52 | 121 | 10 | 14 | 17.16 |
| COc1cc2c(cc1OCCc1ccc(F)cc1)CCN1C[C@@H](CC(C)(C)C)[C@H](O)C[C@H]21 [Compound 4-117, (2R,3R,11bR)-3-(2,2-dimethylpropyl)-9-[2-(4-fluorophenyl)ethoxy]-10-methoxy-1H,2H,3H,4H,6H,7H,11bH-pyrido[2,1-a]isoquinolin-2-ol] | 2.2 | 112 | 11 | 15 | 16.98 |
| COc1cc2c(cc1OCCOC1(C#N)CCC1)CCN1C[C@@H](CC(C)(C)C)[C@H](O)C[C@H]21 [Compound 4-23, 1-(2-{[(2R,3R,11bR)-3-(2,2-dimethylpropyl)-2-hydroxy-10-methoxy-1H,2H,3H,4H,6H,7H,11bH-pyrido[2,1-a]isoquinolin-9-yl]oxy}ethoxy)cyclobutane-1-carbonitrile] | 0.41 | 58.5 | 21 | 25 | 14.9 |
| COc1cc2c(cc1OCC1(F)COCCOC1)CCN1C[C@@H](CC(C)(C)C)[C@H](O)C[C@H]21 [Compound 4-72, (2R,3R,11bR)-3-(2,2-dimethylpropyl)-9-[(6-fluoro-1,4-dioxepan-6-yl)methoxy]-10-methoxy-1H,2H,3H,4H,6H,7H,11bH-pyrido[2,1-a]isoquinolin-2-ol] | 51 | 15.6 | 80 | 56 | 8.77 |

— patent US11718618B2, “Substituted pyrido[2,1-a]isoquinolines as VMAT2 inhibitors” (priority 2021, dated 2023)
